Here are results for 19 compounds from PubChem BioAssay AID330 (DTP/NCI, 2004).

Where “and” joins values, the source holds several entries; their conditions need not be identical. Equal entries are not always repeated. Inconclusive results and toxic doses are left out.

The test system of the test is P388 leukemia ip, CD2F1 mice, survival T/C. Description: NCI In Vivo Anticancer Drug Screen. Data for tumor model P388 Leukemia (intraperitoneal) in CD2F1 (CDF1) mice. As to conditions: endpoint: median survival time, higher = longer survival. A digest of the protocol:
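Mice carrying the transplanted tumor received test compound or vehicle. Survival was recorded in each group, and the value is the treated-group measurement divided by that of the vehicle-treated control group.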

The mark [1] stands for this setting: dose: 50.0 mg/kg/injection, schedule: Q01DX005 (ip), vehicle: Klucel (hydroxypropylcellulose) (HPC).
Setting [2] is: dose: 100.0 mg/kg/injection, schedule: Q01DX005 (ip), vehicle: Klucel (hydroxypropylcellulose) (HPC).
[3] abbreviates: dose: 200.0 mg/kg/injection, schedule: Q01DX005 (ip), vehicle: Klucel (hydroxypropylcellulose) (HPC).
[4] abbreviates: dose: 60.0 mg/kg/injection, schedule: Q01DX005 (ip), vehicle: saline with Tween-80.
[5] abbreviates: dose: 120.0 mg/kg/injection, schedule: Q01DX005 (ip), vehicle: saline with Tween-80.
[6] abbreviates: dose: 240.0 mg/kg/injection, schedule: Q01DX005 (ip), vehicle: saline with Tween-80.
The mark [7] stands for this setting: dose: 100.0 mg/kg/injection, schedule: Q01DX009 (ip), vehicle: saline with Tween-80.
[8] abbreviates: dose: 200.0 mg/kg/injection, schedule: Q01DX009 (ip), vehicle: saline with Tween-80.

`O=c1[nH]cnc2c1CCc1ccccc1-2`: the T/C by setting is: (dose: 100.0 mg/kg/injection, schedule: Q04DX002 (ip), vehicle: saline with Tween-80) 93 % of control; (dose: 200.0 mg/kg/injection, schedule: Q04DX002 (ip), vehicle: saline with Tween-80) 100 % of control; (dose: 400.0 mg/kg/injection, schedule: Q04DX002 (ip), vehicle: saline with Tween-80) 102 % of control.
As for `COc1ccc(/C(C)=N/NS(=O)(=O)c2ccc(C)cc2)cc1OC`, the T/C runs as follows: (dose: 25.0 mg/kg/injection, schedule: Q01DX009 (ip), vehicle: other) 97 % of control; (dose: 50.0 mg/kg/injection, schedule: Q01DX009 (ip), vehicle: other) 96 % of control; (dose: 100.0 mg/kg/injection, schedule: Q01DX009 (ip), vehicle: other) 93 % of control; (dose: 200.0 mg/kg/injection, schedule: Q01DX009 (ip), vehicle: other) 97 % of control; (dose: 400.0 mg/kg/injection, schedule: Q01DX009 (ip), vehicle: other) 88 % of control.
For `COc1cc2c(c3c1c(=O)c1cccnc1n3C)C=CC(C)(C)O2`, the T/C was 101 % of control under setting [1], 101 % of control under setting [2] and 91 % of control under setting [3].
For the compound `COC(=O)C(CSC(c1ccccc1)(c1ccccc1)c1ccccc1)NC(=O)CC(NC(=O)OCc1ccccc1)C(N)=O` (configuration not stated), the T/C reads like this: (dose: 12.5 mg/kg/injection, schedule: Q01DX009 (ip), vehicle: distilled water + Tween-80) 106 % of control; (dose: 25.0 mg/kg/injection, schedule: Q01DX009 (ip), vehicle: distilled water + Tween-80) 93 % of control; (dose: 50.0 mg/kg/injection, schedule: Q01DX009 (ip), vehicle: distilled water + Tween-80) 103 % of control; (dose: 100.0 mg/kg/injection, schedule: Q01DX009 (ip), vehicle: distilled water + Tween-80) 94 % of control; (dose: 200.0 mg/kg/injection, schedule: Q01DX009 (ip), vehicle: distilled water + Tween-80) 102 % of control.
Consider `O=S(=O)(O)c1c(O)c2ccccc2c2nc3ccccc3nc12`, for which the T/C by setting is: (dose: 50.0 mg/kg/injection, schedule: Q01DX007 (ip), vehicle: saline) 105 % of control; (dose: 100.0 mg/kg/injection, schedule: Q01DX007 (ip), vehicle: saline) 87 % of control.
In the case of `CSC(=NC(=O)c1c(Cl)cccc1Cl)SC`, the T/C under setting [4] was 102 % of control, the T/C under setting [5] is 100 % of control and the T/C under setting [6] was 90 % of control.
In the case of `CS(=O)(=O)OCc1cc(=O)c(OS(C)(=O)=O)co1`, the T/C runs as follows: (dose: 50.0 mg/kg/injection, schedule: Q01DX005 (ip), vehicle: saline with Tween-80) 108 % of control; (dose: 100.0 mg/kg/injection, schedule: Q01DX005 (ip), vehicle: saline with Tween-80) 110 % of control; (dose: 200.0 mg/kg/injection, schedule: Q01DX005 (ip), vehicle: saline with Tween-80) 112 % of control.
`C/C=C1\CN2CCC34c5ccc(OC)cc5N(C)C3C2CC1C4C(=O)OC` (configuration not stated): the T/C reads like this: (dose: 17.25 mg/kg/injection, schedule: Q01DX005 (ip), vehicle: acid diluted with saline) 96 % of control; (dose: 34.5 mg/kg/injection, schedule: Q01DX005 (ip), vehicle: acid diluted with saline) 94 % of control.
With `CCOC(=O)c1cnc2cc3c(c[nH]n3C(c3ccccc3)(c3ccccc3)c3ccccc3)cc2c1=O`, the T/C reads like this: (dose: 50.0 mg/kg/injection, schedule: Q01DX009 (ip), vehicle: saline with Tween-80) 94 % of control; under setting [7], 96 % of control; under setting [8], 97 % of control.
`CCC(=O)Cc1nc2nnc(N)n2nc1CC(=O)CC`: the T/C is 100 % of control (dose: 50.0 mg/kg/injection, schedule: Q01DX005 (ip), vehicle: saline); 107 % of control (dose: 100.0 mg/kg/injection, schedule: Q01DX005 (ip), vehicle: saline); 98 % of control (dose: 200.0 mg/kg/injection, schedule: Q01DX005 (ip), vehicle: saline).
With `CCC(=O)OCc1c(-c2ccccc2)nc2sccn12`, the T/C (dose: 200.0 mg/kg/injection, schedule: Q01DX001 (ip), vehicle: Klucel (hydroxypropylcellulose) (HPC)) was 103 % of control.
Turning to `Cc1nn(-c2ccc(Cl)cc2)c2nc(N)nc(N)c12`, the T/C is 92 % of control (dose: 6.25 mg/kg/injection, schedule: Q04DX002 (ip), vehicle: Klucel (hydroxypropylcellulose) (HPC)); 89 % of control and 93 % of control (dose: 12.5 mg/kg/injection, schedule: Q04DX002 (ip), vehicle: Klucel (hydroxypropylcellulose) (HPC)); 92 % of control (dose: 25.0 mg/kg/injection, schedule: Q04DX002 (ip), vehicle: Klucel (hydroxypropylcellulose) (HPC)); 89 % of control (dose: 50.0 mg/kg/injection, schedule: Q04DX002 (ip), vehicle: Klucel (hydroxypropylcellulose) (HPC)); 105 % of control (dose: 100.0 mg/kg/injection, schedule: Q04DX002 (ip), vehicle: Klucel (hydroxypropylcellulose) (HPC)); 115 % of control (dose: 200.0 mg/kg/injection, schedule: Q04DX002 (ip), vehicle: Klucel (hydroxypropylcellulose) (HPC)). Also, the T/C (dose: 400.0 mg/kg/injection, schedule: Q04DX002 (ip), vehicle: Klucel (hydroxypropylcellulose) (HPC)) is 113 % of control.
Consider `COc1cccc2c1C(=O)c1c(O)c3c(c(O)c1C2=O)C[C@@](O)(C(C)O)C[C@@H]3OC1CC(N2CCCCC2)C(O)C(C)O1` (some centres not stated), for which the T/C is, setting by setting: (dose: 2.5 mg/kg/injection, schedule: Q04DX003 (ip), vehicle: water) 120 % of control; (dose: 5.0 mg/kg/injection, schedule: Q04DX003 (ip), vehicle: water) 162 % of control; (dose: 10.0 mg/kg/injection, schedule: Q04DX003 (ip), vehicle: water) 118 % of control; (dose: 20.0 mg/kg/injection, schedule: Q04DX003 (ip), vehicle: water) 110 % of control; (dose: 40.0 mg/kg/injection, schedule: Q04DX003 (ip), vehicle: water) 96 % of control.
With `C[C@]12C=CC(=O)C(O)=C1CC[C@@H]1[C@@H]2CC[C@]2(C)OC(=O)CC[C@@H]12`, the T/C is, setting by setting: (dose: 5.5 mg/kg/injection, schedule: Q01DX005 (ip), vehicle: Klucel (hydroxypropylcellulose) (HPC)) 106 % of control; (dose: 11.0 mg/kg/injection, schedule: Q01DX005 (ip), vehicle: Klucel (hydroxypropylcellulose) (HPC)) 106 % of control; (dose: 22.0 mg/kg/injection, schedule: Q01DX005 (ip), vehicle: Klucel (hydroxypropylcellulose) (HPC)) 101 % of control; (dose: 44.0 mg/kg/injection, schedule: Q01DX005 (ip), vehicle: Klucel (hydroxypropylcellulose) (HPC)) 106 % of control; (dose: 88.0 mg/kg/injection, schedule: Q01DX005 (ip), vehicle: Klucel (hydroxypropylcellulose) (HPC)) 106 % of control; (dose: 176.0 mg/kg/injection, schedule: Q01DX005 (ip), vehicle: Klucel (hydroxypropylcellulose) (HPC)) 107 % of control.
As to `COc1cccc2c1C(=O)c1c(O)c3c(c(O)c1C2=O)C[C@@](O)(C(O)CO)C[C@@H]3OC1CC(N(Cc2ccccc2)Cc2ccccc2)C(O)C(C)O1` (some centres not stated), the T/C is, setting by setting: (dose: 6.25 mg/kg/injection, schedule: Q04DX003 (ip), vehicle: water) 100 % of control; (dose: 12.5 mg/kg/injection, schedule: Q04DX003 (ip), vehicle: water) 109 % of control; (dose: 25.0 mg/kg/injection, schedule: Q04DX003 (ip), vehicle: water) 100 % of control; (dose: 50.0 mg/kg/injection, schedule: Q04DX003 (ip), vehicle: water) 170 % of control; (dose: 100.0 mg/kg/injection, schedule: Q04DX003 (ip), vehicle: water) 209 % of control and 212 % of control.
In the case of `CCOC1NC(=O)C(OCC)NC1=O` (configuration not stated), the T/C by setting is: under setting [1], 96 % of control; under setting [2], 99 % of control; under setting [3], 97 % of control.
`COC(=O)CCCCC1=CCC2C(=O)C=C(O)C2C1` (configuration not stated): the T/C under setting [4] is 87 % of control, the T/C under setting [5] is 106 % of control and the T/C under setting [6] is 116 % of control.
With `CCOC1(C)CC(c2cc(OC)c(OC)c(OC)c2)c2cc3c(cc2O1)OCO3` (configuration not stated), the T/C is 96 % of control (dose: 60.0 mg/kg/injection, schedule: Q01DX005 (ip), vehicle: Klucel (hydroxypropylcellulose) (HPC)); 93 % of control (dose: 120.0 mg/kg/injection, schedule: Q01DX005 (ip), vehicle: Klucel (hydroxypropylcellulose) (HPC)); 92 % of control (dose: 240.0 mg/kg/injection, schedule: Q01DX005 (ip), vehicle: Klucel (hydroxypropylcellulose) (HPC)).
Consider `CCC(CC)COC(=O)c1ccccc1C(=O)OCC(CC)CC`, for which the T/C under setting [7] was 110 % of control and 96 % of control; the T/C under setting [8] is 101 % of control and 117 % of control.
